27 compounds from ChEMBL document CHEMBL1777722, “Design and synthesis of 5,6-fused heterocyclic amides as Raf kinase inhibitors” (Bioorg Med Chem Lett, 2011) can be followed below.

Usually IC50 stands for the concentration at which inhibition is half-maximal. The EC50 is the concentration that produces a half-maximal response. Low values mean higher potency in that assay, high ones lower potency in that assay. By CL/F is commonly meant the apparent clearance, not corrected for the fraction that reaches the circulation. Usually half-life stands for the time needed for the level to fall by half in the phase considered. High values mean slow decline, low ones rapid decline. What is called bioavailability is the share of a dose that reaches the circulation, judged against a reference dose that is usually intravenous. Low values mean little systemic uptake, high ones much systemic uptake.

For data set [1], the target named is RAF proto-oncogene serine/threonine-protein kinase (Homo sapiens, UniProt P04049). Briefly: Inhibition of c-Raf assessed as phosphorylation of MEK1/2 by ELISA. In general terms: An ELISA detects its analyte on a solid surface through an enzyme-linked reagent.
Sequence of RAF proto-oncogene serine/threonine-protein kinase (P04049 whole entry): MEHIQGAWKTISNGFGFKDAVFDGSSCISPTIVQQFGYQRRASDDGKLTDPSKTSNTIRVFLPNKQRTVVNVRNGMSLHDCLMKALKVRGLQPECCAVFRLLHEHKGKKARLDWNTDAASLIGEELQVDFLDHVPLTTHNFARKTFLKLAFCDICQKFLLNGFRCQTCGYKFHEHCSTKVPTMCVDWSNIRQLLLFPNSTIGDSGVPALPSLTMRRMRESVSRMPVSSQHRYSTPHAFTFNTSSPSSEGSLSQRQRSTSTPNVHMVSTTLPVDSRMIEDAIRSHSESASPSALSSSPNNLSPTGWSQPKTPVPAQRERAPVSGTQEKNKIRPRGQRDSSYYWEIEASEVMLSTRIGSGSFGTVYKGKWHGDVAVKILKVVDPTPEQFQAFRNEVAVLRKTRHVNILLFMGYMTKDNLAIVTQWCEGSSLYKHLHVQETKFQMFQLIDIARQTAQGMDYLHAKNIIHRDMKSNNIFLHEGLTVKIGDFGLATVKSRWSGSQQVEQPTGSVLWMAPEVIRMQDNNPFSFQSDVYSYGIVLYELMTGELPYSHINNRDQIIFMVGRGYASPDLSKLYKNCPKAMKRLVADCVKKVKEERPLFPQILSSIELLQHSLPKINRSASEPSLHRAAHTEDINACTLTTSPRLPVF
In data set [2] the target is T1, Serine/threonine-protein kinase B-raf (Homo sapiens, UniProt P15056, V600E). Briefly: Inhibition of B-Raf V599E mutant assessed as phosphorylation of MEK1/2 by ELISA.
T1 sequence (P15056 2-766 V600E limits assumed): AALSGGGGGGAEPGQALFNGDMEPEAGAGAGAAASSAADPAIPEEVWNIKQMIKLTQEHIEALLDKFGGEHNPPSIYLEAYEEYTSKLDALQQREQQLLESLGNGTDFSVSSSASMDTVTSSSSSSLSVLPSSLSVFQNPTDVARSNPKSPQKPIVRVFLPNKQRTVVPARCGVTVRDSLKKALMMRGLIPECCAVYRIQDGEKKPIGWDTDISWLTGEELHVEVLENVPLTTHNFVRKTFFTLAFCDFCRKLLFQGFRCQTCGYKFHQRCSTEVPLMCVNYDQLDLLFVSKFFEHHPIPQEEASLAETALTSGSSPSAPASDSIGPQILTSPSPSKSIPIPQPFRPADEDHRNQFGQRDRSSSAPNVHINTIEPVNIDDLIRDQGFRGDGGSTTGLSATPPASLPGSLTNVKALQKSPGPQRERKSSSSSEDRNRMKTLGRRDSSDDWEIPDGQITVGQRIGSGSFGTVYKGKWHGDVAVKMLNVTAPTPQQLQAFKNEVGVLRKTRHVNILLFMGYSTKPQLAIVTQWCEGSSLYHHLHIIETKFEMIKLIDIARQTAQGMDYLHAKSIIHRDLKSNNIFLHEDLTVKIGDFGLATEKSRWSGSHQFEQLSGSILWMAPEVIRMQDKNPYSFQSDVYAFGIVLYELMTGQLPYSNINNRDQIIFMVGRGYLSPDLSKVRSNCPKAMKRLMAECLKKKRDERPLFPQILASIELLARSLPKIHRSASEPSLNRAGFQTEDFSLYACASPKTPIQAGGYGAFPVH
The target of data set [3] is T1, Serine/threonine-protein kinase B-raf. Briefly: Inhibition of BRAF V600E mutant-mediated ERK phosphorylation in human SKMEL-28 cells by immunoblotting method. The data set is classed as cell-based, MEL-28.
The target in data set [4] is Macrophage colony-stimulating factor 1 receptor (Homo sapiens) (UniProt P07333). Briefly: Inhibition of CSFR1.
In data set [5] the target is Receptor-type tyrosine-protein kinase FLT3 (Homo sapiens) (UniProt P36888). Briefly: Inhibition of Flt3.
Data set [6] deals with Vascular endothelial growth factor receptor 2 (Homo sapiens) (UniProt P35968). Briefly: Inhibition of KDR.
Sequence of Vascular endothelial growth factor receptor 2 (Homo sapiens) (P35968 whole entry): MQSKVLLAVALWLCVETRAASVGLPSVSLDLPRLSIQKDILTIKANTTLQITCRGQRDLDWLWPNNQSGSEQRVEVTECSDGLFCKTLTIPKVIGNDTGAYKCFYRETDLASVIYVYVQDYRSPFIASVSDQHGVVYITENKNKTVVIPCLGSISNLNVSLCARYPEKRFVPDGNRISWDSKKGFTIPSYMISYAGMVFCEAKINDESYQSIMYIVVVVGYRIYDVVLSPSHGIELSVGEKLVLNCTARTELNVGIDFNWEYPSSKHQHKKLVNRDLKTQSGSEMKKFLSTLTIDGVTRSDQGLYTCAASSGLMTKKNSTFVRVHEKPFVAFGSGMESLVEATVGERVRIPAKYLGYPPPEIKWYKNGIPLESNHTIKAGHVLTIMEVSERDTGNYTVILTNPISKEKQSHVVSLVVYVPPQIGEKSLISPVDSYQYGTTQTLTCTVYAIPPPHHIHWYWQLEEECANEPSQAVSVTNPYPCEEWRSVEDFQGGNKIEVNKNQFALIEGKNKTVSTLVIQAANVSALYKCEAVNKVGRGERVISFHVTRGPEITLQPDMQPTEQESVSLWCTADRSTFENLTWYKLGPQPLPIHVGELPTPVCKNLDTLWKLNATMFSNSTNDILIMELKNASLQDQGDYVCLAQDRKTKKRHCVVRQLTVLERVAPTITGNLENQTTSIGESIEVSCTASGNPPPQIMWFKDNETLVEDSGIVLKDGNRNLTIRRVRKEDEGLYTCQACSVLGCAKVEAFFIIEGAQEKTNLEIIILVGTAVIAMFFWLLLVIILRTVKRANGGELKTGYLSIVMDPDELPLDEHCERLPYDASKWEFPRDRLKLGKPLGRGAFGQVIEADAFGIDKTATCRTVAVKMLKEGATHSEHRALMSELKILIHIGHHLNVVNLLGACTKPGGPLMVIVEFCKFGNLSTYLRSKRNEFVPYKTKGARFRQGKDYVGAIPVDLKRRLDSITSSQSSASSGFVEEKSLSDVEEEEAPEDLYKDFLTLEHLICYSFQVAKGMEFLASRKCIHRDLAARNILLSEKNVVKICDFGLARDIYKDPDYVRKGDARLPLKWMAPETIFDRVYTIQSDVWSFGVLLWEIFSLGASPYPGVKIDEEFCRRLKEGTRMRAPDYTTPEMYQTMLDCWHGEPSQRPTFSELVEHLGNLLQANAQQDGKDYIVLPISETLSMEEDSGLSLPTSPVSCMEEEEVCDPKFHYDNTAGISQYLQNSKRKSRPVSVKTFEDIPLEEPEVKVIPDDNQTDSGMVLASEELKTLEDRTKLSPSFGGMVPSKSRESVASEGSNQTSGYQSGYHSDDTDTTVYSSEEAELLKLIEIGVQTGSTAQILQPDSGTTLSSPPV
The target in data set [7] is Tyrosine-protein kinase ABL1 (Homo sapiens) (UniProt P00519). Briefly: Inhibition of cABL.
Sequence of Tyrosine-protein kinase ABL1 (Homo sapiens) (P00519 whole entry): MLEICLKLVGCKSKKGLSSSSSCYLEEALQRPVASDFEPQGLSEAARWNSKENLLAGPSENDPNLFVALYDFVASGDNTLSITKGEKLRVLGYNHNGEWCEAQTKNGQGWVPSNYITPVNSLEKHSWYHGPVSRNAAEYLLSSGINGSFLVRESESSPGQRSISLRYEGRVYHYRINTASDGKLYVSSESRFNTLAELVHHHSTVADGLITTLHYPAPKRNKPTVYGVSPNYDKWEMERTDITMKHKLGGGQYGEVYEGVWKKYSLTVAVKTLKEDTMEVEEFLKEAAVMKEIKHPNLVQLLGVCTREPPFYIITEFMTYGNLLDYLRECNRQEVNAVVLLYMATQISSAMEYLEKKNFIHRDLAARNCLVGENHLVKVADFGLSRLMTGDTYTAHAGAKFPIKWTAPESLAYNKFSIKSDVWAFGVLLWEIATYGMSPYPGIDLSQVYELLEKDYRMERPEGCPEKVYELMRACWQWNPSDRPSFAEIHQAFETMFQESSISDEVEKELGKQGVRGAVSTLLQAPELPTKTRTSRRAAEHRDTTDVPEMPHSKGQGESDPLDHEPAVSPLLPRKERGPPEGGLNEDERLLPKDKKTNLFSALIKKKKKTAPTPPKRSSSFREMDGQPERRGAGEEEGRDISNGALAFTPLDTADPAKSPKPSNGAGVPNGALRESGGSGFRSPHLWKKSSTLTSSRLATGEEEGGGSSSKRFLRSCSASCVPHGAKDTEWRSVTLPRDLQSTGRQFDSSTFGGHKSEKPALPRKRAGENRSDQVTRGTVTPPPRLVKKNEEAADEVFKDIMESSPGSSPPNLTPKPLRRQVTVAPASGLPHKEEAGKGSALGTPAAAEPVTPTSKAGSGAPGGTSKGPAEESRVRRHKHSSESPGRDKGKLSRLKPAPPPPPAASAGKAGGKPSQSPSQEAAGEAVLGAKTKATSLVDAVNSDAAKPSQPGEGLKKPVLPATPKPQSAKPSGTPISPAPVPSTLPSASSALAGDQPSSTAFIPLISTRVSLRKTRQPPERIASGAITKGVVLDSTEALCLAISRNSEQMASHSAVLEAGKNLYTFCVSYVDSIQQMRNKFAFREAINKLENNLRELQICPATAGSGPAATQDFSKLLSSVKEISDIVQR
The target of data set [8] is Proto-oncogene tyrosine-protein kinase receptor Ret (Homo sapiens) (UniProt P07949). Briefly: Inhibition of Ret.
Sequence of Proto-oncogene tyrosine-protein kinase receptor Ret (Homo sapiens) (P07949 whole entry): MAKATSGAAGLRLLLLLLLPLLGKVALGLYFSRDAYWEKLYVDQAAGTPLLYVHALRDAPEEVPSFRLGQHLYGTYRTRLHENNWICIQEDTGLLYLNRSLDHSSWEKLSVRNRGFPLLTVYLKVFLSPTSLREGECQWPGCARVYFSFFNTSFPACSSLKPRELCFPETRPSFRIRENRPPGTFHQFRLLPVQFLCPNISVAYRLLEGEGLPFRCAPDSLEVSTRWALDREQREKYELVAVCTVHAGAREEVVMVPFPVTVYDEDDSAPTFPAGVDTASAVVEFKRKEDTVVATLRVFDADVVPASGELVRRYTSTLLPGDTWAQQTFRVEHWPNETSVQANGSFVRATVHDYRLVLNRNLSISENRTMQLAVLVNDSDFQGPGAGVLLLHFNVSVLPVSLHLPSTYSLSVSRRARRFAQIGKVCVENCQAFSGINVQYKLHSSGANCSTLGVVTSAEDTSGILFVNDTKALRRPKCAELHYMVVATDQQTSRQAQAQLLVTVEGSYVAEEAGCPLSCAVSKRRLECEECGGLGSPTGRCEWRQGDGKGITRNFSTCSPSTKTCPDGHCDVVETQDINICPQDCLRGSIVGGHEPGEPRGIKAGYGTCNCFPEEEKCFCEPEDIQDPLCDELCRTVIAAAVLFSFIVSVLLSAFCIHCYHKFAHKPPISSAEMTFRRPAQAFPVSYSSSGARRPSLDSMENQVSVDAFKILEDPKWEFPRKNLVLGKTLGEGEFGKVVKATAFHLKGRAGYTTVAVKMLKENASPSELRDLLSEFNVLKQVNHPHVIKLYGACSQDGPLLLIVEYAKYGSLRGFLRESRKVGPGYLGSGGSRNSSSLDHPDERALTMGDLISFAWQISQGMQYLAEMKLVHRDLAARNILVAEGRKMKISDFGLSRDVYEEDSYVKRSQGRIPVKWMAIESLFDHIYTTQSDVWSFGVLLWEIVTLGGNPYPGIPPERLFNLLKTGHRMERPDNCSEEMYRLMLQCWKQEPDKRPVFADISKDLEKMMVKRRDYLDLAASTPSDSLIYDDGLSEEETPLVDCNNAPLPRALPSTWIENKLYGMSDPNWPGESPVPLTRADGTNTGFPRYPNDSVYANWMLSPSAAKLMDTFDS
The nature of data set [9]: Clearance in mouse at 20 mg/kg, po administered as single dose. The format is ADME, organism-based. The arrangement: dose 20 mg/kg, route oral. The settings on record: in vivo.
The subject of another data set is Mus musculus. Briefly: Volume of distribution in mouse at 20 mg/kg, po administered as single dose. The format is ADME, organism-based. Also noted: dose 20 mg/kg, route oral. The settings on record: in vivo.
Data set [10] is described as follows: Half life in mouse at 20 mg/kg, po administered as single dose. The format is ADME, organism-based. Also noted: dose 20 mg/kg, route oral. The settings on record: in vivo.
Data set [11] can be described thus: Oral bioavailability in mouse at 20 mg/kg administered as single dose. The format is ADME, organism-based. To be noted: in vivo.

SMILES strings stand for the structures. Active and inactive are the calls of the source.

On to `CNC(=O)c1cc(Oc2ccc3oc(Nc4cccc(C(C)(C)C)c4)nc3c2)ccn1`, for which the figures for the IC50 in [1] and in data set [2] were 1 nM and 6 nM, respectively. This compound had an EC50 in data set [3] of 1000 nM.
For the compound `CNC(=O)c1cc(Oc2ccc3oc(Nc4ccc(C(C)C)cc4)nc3c2)ccn1`, the 50% inhibitory concentration (IC50) was determined as 1 nM in [1] and 6 nM in data set [2].
`CNC(=O)c1cc(Oc2ccc3sc(Nc4ccc(Br)cc4)nc3c2)ccn1`: the results for the IC50 in [1] and in data set [2] were 2 nM and 7 nM, respectively. In [3], the EC50 was greater than 10000 nM.
With `CCc1ccccc1Nc1nc2cc(Oc3ccnc(C(=O)NC)c3)ccc2o1`, the IC50 was 110 nM in data set [1] and 340 nM in [2].
Taken in the same sequence, the figures for `CNC(=O)c1cc(Oc2ccc3oc(Nc4ccccc4F)nc3c2)ccn1` were 200 nM and 580 nM.
The like results for `CNC(=O)c1cc(Oc2ccc3sc(Nc4ccc(OC(F)(F)F)cc4)nc3c2)ccn1` were, in that order, 4 nM and 18 nM.
For the compound `CNC(=O)c1cc(Oc2ccc3oc(Nc4cccc(C(F)(F)F)c4)nc3c2)ccn1`, the values for the IC50 in data set [1] and in data set [2] were 27 nM and 110 nM, respectively.
In the case of `CNC(=O)c1cc(Oc2ccc3oc(Nc4ccc(Br)cc4)nc3c2)ccn1`, the IC50 in data set [1] worked out at 3 nM; in data set [2], 25 nM. In addition, a half-maximal effect in data set [3] (EC50) was put at 10000 nM.
`CCCCc1ccc(Nc2nc3cc(Oc4ccnc(C(=O)NC)c4)ccc3s2)cc1`: the results for the IC50 in data set [1] and in data set [2] were 9 nM and 65 nM, respectively.
With `CNC(=O)c1cc(Oc2ccc3sc(Nc4cccc(C(C)(C)C)c4)nc3c2)ccn1`, the inhibition entry in data set [4], in [5], in data set [6], in data set [7] and in [8] was “Active” throughout. Also, the IC50 in data set [1] stood at 1 nM; in data set [2], 4 nM. In addition, in data set [3], the EC50 worked out at 2100 nM.
For the compound `CNC(=O)c1cc(Oc2ccc3oc(Nc4ccc(Oc5ccccc5)cc4)nc3c2)ccn1`, the IC50 in [1] is 53 nM; in [2], 680 nM.
Taken in the same sequence, the figures for `CNC(=O)c1cc(Oc2ccc3oc(Nc4ccccc4Cl)nc3c2)ccn1` were 120 nM and 260 nM.
Turning to `CNC(=O)c1cc(Oc2ccc3oc(Nc4cccc(C(C)C)c4)nc3c2)ccn1`, the inhibition entry in [4], in data set [5], in [6], in data set [7] and in [8] was “Active” in each case. In addition, the half-inhibitory concentration (IC50) in data set [1] was 3 nM. The EC50 in [3] worked out at 1000 nM.
Regarding `CNC(=O)c1cc(Oc2ccc3sc(Nc4ccc(C(C)C)cc4)nc3c2)ccn1`, the IC50 is 3 nM in [1] and 19 nM in data set [2]. In data set [3], the concentration giving a half-maximal response (EC50) turned out to be 3200 nM.
With `CC(C)c1cccc(Nc2nc3cc(Oc4ccnc(C(=O)NCCN5CCOCC5)c4)ccc3o2)c1`, the concentration for half-maximal inhibition (IC50) is 140 nM in [1] and 200 nM in data set [2].
Turning to `CNC(=O)c1cc(Oc2ccc3sc(Nc4ccc(C)cc4)nc3c2)ccn1`, the half-inhibitory concentration (IC50) amounted to 7 nM in [1] and 26 nM in data set [2]. Further, in data set [9], the apparent clearance (CL/F) amounted to 14.1 mL/min/kg. In the data set on Mus musculus, the Vd came to 1.042 L/kg. Also, the half-life in data set [10] came out at 80 min. In addition, the bioavailability in data set [11] was 90%.
For the compound `CCc1ccc(Nc2nc3cc(Oc4ccnc(C(=O)NC)c4)ccc3o2)cc1`, the IC50 in data set [1] is 1 nM; in data set [2], 5 nM. In data set [3], this compound yielded a half-maximal effective concentration (EC50) of 7000 nM. Also, the apparent clearance CL/F in data set [9] was found to be 0.93 mL/min/kg. This compound registered a Vd in the data set on Mus musculus of 0.082 L/kg. In [10], this compound had a half-life of 32 min. The compound further yielded a bioavailability in data set [11] of 33%.
For `O=C(NCCN1CCOCC1)c1cc(Oc2ccc3sc(Nc4ccc(Br)cc4)nc3c2)ccn1`, the values for the IC50 in data set [1] and in data set [2] were 41 nM and 240 nM, respectively. This compound also gave an EC50 in data set [3] greater than 10000 nM.
Regarding `CNC(=O)c1cc(Oc2ccc3oc(Nc4ccc(OC(F)(F)F)cc4)nc3c2)ccn1`, the half-maximal inhibitory concentration (IC50) in [1] is 2 nM; in [2], 12 nM.
Take `CCCCc1ccc(Nc2nc3cc(Oc4ccnc(C(=O)NC)c4)ccc3o2)cc1`: the IC50 came to 2 nM in [1] and 11 nM in data set [2].
Turning to `CNC(=O)c1cc(Oc2ccc3oc(Nc4ccc(Cl)cc4)nc3c2)ccn1`, the IC50 in [1] worked out at 19 nM; in data set [2], 21 nM.
Take `CC(C)c1cccc(Nc2nc3cc(Oc4ccnc(C(N)=O)c4)ccc3o2)c1`: the IC50 in [1] and in data set [2] was 4 nM throughout. Besides, the 50% effective concentration (EC50) in [3] came to 3700 nM.
For the compound `CC(C)(C)c1cccc(Nc2nc3cc(Oc4ccnc(C(N)=O)c4)ccc3s2)c1`, the values for the IC50 in data set [1] and in [2] were 1 nM and 2 nM, respectively. This compound also showed a 50% effective concentration (EC50) in [3] of 2900 nM.
For the compound `CNC(=O)c1cc(Oc2ccc3sc(Nc4ccc(Cl)cc4)nc3c2)ccn1`, the IC50 in data set [1] worked out at 4 nM; in [2], 15 nM.
As to `CNC(=O)c1cc(Oc2ccc3c(c2)nc(Nc2cccc(C(C)(C)C)c2)n3C)ccn1`, the IC50 in data set [2] amounted to 120 nM. In data set [3], this compound came in with a 50% effective concentration (EC50) of 280 nM.
With `CNC(=O)c1cc(Oc2ccc3oc(Nc4ccc(N(C)C)cc4)nc3c2)ccn1`, the IC50 in data set [1] was 12 nM; in data set [2], 130 nM.
As to `CCN1CCN(c2ccc(Nc3nc4cc(Oc5ccnc(C(=O)NC)c5)ccc4o3)cc2)CC1`, the 50% inhibitory concentration (IC50) worked out at 7300 nM in data set [1] and 17000 nM in data set [2].
